Consider 90 molecules from a melting point compilation (Tetko et al.; mined from patent text by program, amines drawn as free bases though some values may be those of a salt).

The structures appear in SMILES notation.

As usually defined, the melting point is the temperature, or range, at which the solid turns liquid. The molecule `Cc1noc(NS(=O)(=O)c2ccsc2NC(=O)Nc2sccc2S(=O)(=O)Nc2onc(C)c2C)c1C` yielded a melting point of 112 to 114 °C.
Turning to `COC(=O)c1ccccc1-c1ccc(CBr)cc1`, the melting point was 51 to 53 °C.
The figure for `O=c1cc(NCCN2CCC(c3noc4cc(F)ccc34)CC2)cn[nH]1` is 97 to 99 °C; for `COc1cc(OC)c(C2C=CCO2)cc1C=CC(=O)c1ccc(S(N)(=O)=O)cc1` (stereo not given) it is 194 to 195 °C.
To `CCN(CC)C(=O)N1SN(C(C)C)C(=O)c2ccccc21` belongs 103 to 104 °C.
Turning to `COCCn1c2cc(CCO)c(OC)cc2c2c3c(c(-c4ccccc4Cl)cc21)C(=O)NC3=O`, the melting point fell in the range of 271 to 273 °C.
As to `Cc1ccc(S(=O)(=O)Nc2ccc(Cl)cc2[N+](=O)[O-])cc1`, the melting point fell in the range of 110 to 111 °C.
To `C=CCSC(=NC(=O)OC)NC(=O)Nc1ccc(C)cc1` belongs 103 to 105 °C; to `BrC=C(c1ccccc1)c1ccccc1`, 45 °C.
With `COC(=O)c1c(C=O)n(C)c2ccc(OC)cc12`, the melting point fell in the range of 133 to 134 °C.
The molecule `Cc1cc2c(s1)S(=O)(=O)N=C(NC(C)C)N2` registered a melting point of 272 to 273 °C.
`COc1ccc2cc([C@H](C)C(=O)OCC[Si](C)(C)C)ccc2c1`: the melting point was in the range of 81.5 to 82.5 °C.
`CC(C)(C)OC(=O)Nc1cc(OCC#N)c(C#Cc2ccccc2)cc1[N+](=O)[O-]` registered a melting point of 170 °C.
The figure for `Cc1cc(=O)n2cccc(O)c2n1` is 144 to 145 °C.
In turn, `COc1ccc(N2CCN(c3ccc(OC)nc3-c3ccc(OCC(F)(F)F)cc3)CC2)cc1` registered a melting point of 104 to 107 °C.
To `O=C(Cc1ccccc1C(=O)O)Nc1cccc(/C=C/c2csc(C3CCC3)n2)c1` belongs 198 to 199 °C.
On to `COc1nc2ccccc2c2c1ncn2CC(C)C`, for which the melting point fell in the range of 111 to 114 °C.
`COc1ccc(-c2c[nH]c3cc(OC)c(OC)cc3c2=O)cc1` came in with a melting point of 310 to 311 °C.
For `Cc1cccc2c(-c3ccc(F)cc3)nccc12`, the melting point lay in the range of 91 to 92 °C.
For the molecule `Cn1nc(OCCCc2cc(-c3ccc(C(F)(F)F)cc3)no2)cc1C(=O)O`, the melting point lay within 162 to 163 °C.
The figure for `Cc1cc2[nH]c(=O)c(C(=O)O)c(-c3ccccc3C)c2cc1C` is 236 to 237 °C; for `COC(=O)C1=C(O)c2sc(C(F)(F)F)cc2S(=O)(=O)N1C` it is 178 to 180 °C.
The figure for `CN(C)NC(=O)C1(N2C(=O)c3cccc(Cl)c3C2=O)CCCCC1` is 184 to 185 °C; for `CCCCCCCCCCOc1ccc(-c2ccc(OCCCCCCCCCC)c(OCCCCCCCCCC)c2)cc1OCCCCCCCCCC` it is 85 to 86 °C.
To `C=CC(=O)NC(=O)NCCS(=O)(=O)C=C` belongs 177 to 179 °C.
Turning to `COC(=O)C1=C(C)NC(C)=C(C(=O)OCC(C)(C)CN(C)C)C1c1cccc([N+](=O)[O-])c1Cl` (stereo not given), the melting point was in the range of 167 to 169 °C.
For `O=C(Nc1ccc(OCCN2CCOCC2)c2ccccc12)OCC(Cl)(Cl)Cl`, the melting point lay in the range of 124 to 125 °C.
To `COc1ccc(C2OCC(C)(C)C(C(=O)NCCC(=O)O)O2)cc1` (stereo not given) belongs 135 to 136 °C.
The molecule `CCC1=CC(=O)C2(C)CCC3c4ccc(OC)cc4CCC3C12` (stereo not given) gave a melting point of 103 to 106 °C.
The figure for `O=C1NC(=O)c2ccccc2/C1=C/Nc1ccc(N2CCOCC2)cc1` is 257 to 258 °C.
As to `CNC(=O)OC(Cn1ccnc1)c1ccc(Cl)cc1Cl` (stereo not given), the melting point is 106 to 108 °C.
Regarding `COC(=O)c1ccccc1COc1cccc2oc(C)cc12`, the melting point was in the range of 93 to 95 °C.
To `COc1ccc(Oc2ccc3ccc(NC(=O)c4ccc(OC)cc4)nc3n2)cc1` belongs 163 °C.
`Cn1c(=O)[nH]c2c(C(N)=O)nc(-c3cccnc3)nc21` came in with a melting point above 350 °C.
The figure for `CC(O)CCc1ccc2c(c1)Cc1ccccc1-2` (stereo not given) is 120 to 121 °C; for `BrCc1noc2c1ccc1ccccc12` it is 100 to 103 °C.
To `COC(=O)CCc1nc(CCc2ccc(CC(=O)OC)cc2)ccc1O` belongs 90 to 91 °C; to `O=C1NC(C(=O)N2CCN3C(=O)OC(c4ccccc4)(c4ccccc4)C3C2)c2ccccc21` (stereo not given), 227 to 228 °C; to `O=C(O)c1cc(CO)nn1-c1ncccc1Cl`, 178 to 180 °C.
The figure for `Cc1cc(C#N)c(C)c(C(=O)Nc2ccc(Cl)cn2)n1` is 264 °C.
Molecule `CCOC(=O)CCCCNc1ccc2c(c1)CCC2` returned a melting point of 61 to 63 °C.
In the case of `CC(C)(C)c1ccc(OP2N(c3ccccc3)P(Oc3ccc(C(C)(C)C)cc3C(C)(C)C)N2c2ccccc2)c(C(C)(C)C)c1` (stereo not given), the melting point was in the range of 162 to 166 °C.
The figure for `O=C1CCC(c2c[nH]c3ncccc23)CC1` is 162 to 164 °C.
To `CCOc1cc(-c2cc(C(F)(F)F)n3ncc(C(=O)Nc4cc(S(=O)(=O)NCCO)sc4Cl)c3n2)ccc1C(F)(F)F` belongs 250 °C; to `N=C(c1cc(Cl)ccc1N)C1CCCCC1`, 65 °C.
Regarding `Cc1nc(N)nc(N)c1-c1cc(Cl)ccc1Cl`, the melting point fell in the range of 226 to 228 °C.
The figure for `OCc1ccc2nc3c(cc2c1)-c1cccc2cccc-3c12` is 215 to 218 °C.
To `O=C1CCCN1[C@H]1CC[C@@H](C(=O)O)CC1` belongs 188 °C; to `CC(C)(C)CC(C)(C)c1cc(N=Nc2cc(C(=O)O)ccc2Cl)c(O)c(C(C)(C)c2ccccc2)c1`, 218 to 220 °C.
The figure for `COC(=O)c1sc(C)c(C#N)c1N(C(=O)OC(C)(C)C)C(=O)OC(C)(C)C` is 97 to 102 °C; for `CCOC(=O)c1cnn(-c2ccccc2)c1OC` it is 67 °C.
The molecule `O=C(c1ccccc1)C(O)Cc1cccc(O)c1` (stereo not given) displayed a melting point of 118 to 119 °C.
The figure for `COc1cc(CN2CCc3cc(O)c(OC)cc3C2)cc(OC)c1` is 127 to 128 °C; for `CN1Cc2cccc(Cl)c2S1(=O)=O` it is 95 to 97 °C; for `CC(C)OC1CCCC(C2NC(=O)C2C(C)O[Si](C)(C)C(C)(C)C)C1O` (stereo not given) it is 121 to 123 °C.
Molecule `O=C(O)COc1ccc(SCc2ccc(OCc3ccc(OC(F)(F)F)cc3)cc2)c2c1CCC2` returned a melting point of 140 to 142 °C.
Molecule `COCc1cc(C2=NOC(c3cc(Cl)cc(Cl)c3)(C(F)(F)F)C2)ccc1C(=O)NC(=N)OC` (stereo not given) showed a melting point of 132 to 134 °C.
The figure for `O=C(O)c1cc(OCCCCCCc2cccc(OCc3ccccc3)c2OCc2ccccc2)ccc1O` is 97 to 100 °C; for `NC1CCC(CC2CCC(Nc3ncc4ncnc(Nc5ccc(F)c(Cl)c5)c4n3)CC2)CC1` (stereo not given) it is 164 to 166 °C.
In the case of `Nc1cccc(C(=O)c2cccc3ccccc23)c1O`, the melting point is 211 °C.
`Cc1cn(-c2cccc(OCCOS(N)(=O)=O)c2)cn1` had a melting point of 169 to 170 °C.
To `CCOC(=O)c1nc2ccc([N+](=O)[O-])cc2c(O)c1C(=O)OCC` belongs 264 °C; to `CC(C)(C)NS(=O)(=O)c1cccc(-c2ccc3cnc(Nc4ccc(=O)[nH]c4)nn23)c1`, 270 to 271 °C; to `CC(C)OCCCNC(=O)C(C)(C(C)C)C(C)C`, 32 °C.
The figure for `NC1CCC(C(=O)Nc2cccc(-c3cccc4c3/C(=C/c3ccc[nH]3)C(=O)N4)c2)CC1` (stereo not given) is 210 to 212 °C; for `COc1cc2c(cc1OC)C1C(Cl)=NC=NC1N2` (stereo not given) it is 148 to 150 °C.
Consider `COC(=O)c1c(C)[nH]c(C)c1C1=CC(=O)c2ccccc2C1=O`, for which the melting point fell in the range of 209 to 210 °C.
With `COc1cc(CO)cc2c(Br)ccc(OC(C)C)c12`, the melting point lay within 120 to 121 °C.
As for `CCS(=O)(=O)c1ccc(C(CC2CCCC2)C(=O)Nc2nccs2)cc1` (stereo not given), the melting point fell in the range of 178 to 179 °C.
To `Cc1nc(Cl)c(C#N)c2c1CCCC2` belongs 98 °C; to `CNc1cc(Cl)cc(N)c1[N+](=O)[O-]`, 129 °C.
To `O=C(c1ccc(-c2cnc3c(c2)N(Cc2cc(F)ccc2F)CCN3)cc1)N1CCC(N2CCCC2)CC1` belongs 202 to 204 °C; to `CCCc1c(OCCCSCCC(=O)O)ccc(C(C)=O)c1O`, 90 to 92 °C.
The figure for `Cc1cc(-c2ccc(Cl)cc2)nc2c(-c3nc(-c4ccc(S(N)(=O)=O)s4)no3)cnn12` is 253 °C; for `CSc1nc(=O)n(CCO)cc1F` it is 161 to 162 °C.
`CCCCc1nc2ccccc2n1Cc1ccc(-c2ccccc2C2SC(=O)NC2=O)cc1` (stereo not given) registered a melting point of 162 to 163 °C.
To `Cc1c(COc2cccc3c2CN(C2CCC(=O)NC2=O)C3=O)oc2ccccc12` (stereo not given) belongs 210 to 212 °C; to `COC(=O)c1cccc(-c2ncc(O)cn2)c1`, 219 to 223 °C; to `CNC(=S)C1(c2cnc3ccccc3c2)CCCCC1=O` (stereo not given), 235 to 236 °C.
The figure for `CCOC(=O)c1nnc2c(sc3nc(C)ccc32)c1OCC` is 158 to 160 °C; for `Oc1cc(Br)c(Br)cc1O` it is 110 to 111 °C.
The figure for `COc1ccc(CNc2cc(C(N)=O)c([N+](=O)[O-])cc2[N+](=O)[O-])cc1` is 201 to 203 °C; for `CC(=O)Oc1ccc(C(C)C)c(NC(=O)CN2CCN(CCSc3nc4ccccc4o3)CC2)c1C(C)C` it is 129 to 131 °C; for `Cc1cc(OCc2ccccc2)c(C)cc1OCCCC(C)(C)C(=O)O` it is 104 to 106 °C.
Turning to `CC(=N)NC=Cc1ccc([N+](=O)[O-])cc1`, the melting point lay in the range of 142 to 143 °C.
To `CN1CC(CNN)CC2c3cccc4[nH]cc(c34)CC21` (stereo not given) belongs 171 to 172 °C; to `Cc1sc(-c2ccccc2)nc1CCOc1ccc([N+](=O)[O-])cn1`, 131 to 132 °C.
To `CC(C)[C@H](NC(=O)N(C)Cc1csc(NC(=O)OC(C)(C)C)n1)C(=O)N[C@@H](Cc1ccccc1)[C@@H](O)C[C@H](Cc1ccccc1)NC(=O)OCc1cccnc1` belongs 95 to 98 °C; to `c1ccc2nc(COc3cccc4[nH]ccc34)ccc2c1`, 143 to 144 °C.
To `O=[N+]([O-])c1cnn2c(-c3cccnc3)ccnc12` belongs 302 to 303 °C.
